{
  "source": "paper PMC8395040",
  "about": "(International Journal of Molecular Sciences, 2021)",
  "key": {"BxPC-3": {"system": "BxPC-3", "assay": "MTT cytotoxicity assay, BxPC-3", "type": "cell-based", "conditions": "Homo sapiens, 72 h, 0.05–50 µM", "procedure": "(§1) Cytotoxicity assays were performed by using the MTT reduction method as described previously. Briefly, cancer cell lines were plated in flat-bottom 96-well plates at a cell concentration of 5 × 10^3 cells/well for the fastest growing lines, such as HEK293 and HT29 cells and 1 × 10^4 cells/well for more slowly growing lines, such as HCT116, H1975, BxPC-3, AsPC-1, B16-F10 and DAOY. Then, cells were incubated with the synthesised compounds at different concentrations (from 0.05 to 50 µM) in 200 µL with 10% FBS in RPMI 1640 or DMEM F12 culture medium at 37 °C for 72 h. Later, 10 µL of MTT were added at a final concentration of 0.5 mg/mL, incubated at 37 °C for 4 h, and then solubilised with 10% sodium dodecyl sulphate (SDS) in 0.1 mM HCl and incubated overnight at 37 °C. Formazan formation was measured at 570 nm in a multiwell plate reader (Cytation 5, Biotek Instruments, Winooski, VT, USA). Three independent biological replicates were performed."}, "Daoy": {"system": "Daoy", "assay": "MTT cytotoxicity assay, Daoy", "type": "cell-based, human", "conditions": "Homo sapiens, Daoy, 72 h; for IC50: 0.05–50 µM; for cytotoxicity at 50 µM: read-out: % Cytotoxicity (50 µM) DAOY"}, "HCT116": {"system": "HCT116", "assay": "MTT cytotoxicity assay, HCT116", "type": "cell-based", "conditions": "Homo sapiens; for cytotoxicity at 50 µM: read-out: % Cytotoxicity (50 µM) HCT116; for IC50: 0.05–50 µM", "procedure": "as §1"}, "HT29": {"system": "HT29", "assay": "MTT cytotoxicity assay, HT29", "type": "cell-based", "conditions": "Homo sapiens; for cytotoxicity at 50 µM: read-out: % Cytotoxicity (50 µM) HT29; for IC50: 0.05–50 µM", "procedure": "as §1"}, "AsPC-1": {"system": "AsPC-1", "assay": "MTT cytotoxicity assay, AsPC-1", "type": "cell-based", "conditions": "Homo sapiens, ASPC1, 72 h, 0.05–50 µM", "procedure": "as §1"}, "H1975": {"system": "H1975", "assay": "MTT cytotoxicity assay, H1975", "type": "cell-based", "conditions": "Homo sapiens; for cytotoxicity at 50 µM: read-out: % Cytotoxicity (50 µM) H1975; for IC50: 0.05–50 µM", "procedure": "as §1"}, "HEK293": {"system": "HEK293", "assay": "MTT cytotoxicity assay, HEK293 control cells", "type": "cell-based, human", "conditions": "Homo sapiens, HEK293; MTT, 72 h, non-cancer cell line"}, "[1]": {"assay": "MTT cytotoxicity assay, HEK293 control cells", "type": "cell-based, human", "conditions": "human, HEK293 cells; 50 µM, 72 h, MTT"}, "tumour cell lines": {"system": "tumour cell lines", "assay": "MTT cytotoxicity assay, summary over the tumour cell line panel", "type": "cell-based, human", "conditions": "50 µM, 72 h, MTT, tumour cell lines tested", "procedure": "as §1"}, "GLI-luciferase reporter": {"biological_target": "GLI-luciferase reporter", "set-up": "method as in PMID 24923765", "conditions": "cited from earlier work"}},
  "note": "Where two headings read alike, the source gives them in different places.",
  "data": [
    {"smiles": "CCCCCn1cnc2c(-c3ccc(OC(F)(F)F)cc3)nc(NC3CCCCC3)nc21", "note": "[Compound 4e, N-cyclohexyl-9-pentyl-6-(4-(trifluoromethoxy)phenyl)-9H-purin-2-amine]", "values": [
      {"measurement": "IC50", "setting": "BxPC-3", "value": "> 50", "unit": "µM"},
      {"measurement": "IC50", "setting": "Daoy; MTT", "value": "> 50", "unit": "µM"},
      {"measurement": "cytotoxicity at 50 µM", "setting": "Daoy", "value": "< 50", "unit": "%"},
      {"measurement": "cytotoxicity at 50 µM", "setting": "HCT116; HCT-116, 72 h", "value": "< 50", "unit": "%"},
      {"measurement": "IC50", "setting": "HCT116; HCT-116, MTT, 72 h", "value": "> 50", "unit": "µM"},
      {"measurement": "cytotoxicity at 50 µM", "setting": "HT29; HT-29, 72 h", "value": "< 50", "unit": "%"},
      {"measurement": "IC50", "setting": "HT29; HT-29, MTT, 72 h", "value": "> 50", "unit": "µM"},
      {"measurement": "IC50", "setting": "AsPC-1", "value": "> 50", "unit": "µM"},
      {"measurement": "cytotoxicity at 50 µM", "setting": "H1975; NCI-H1975, 72 h", "value": "< 50", "unit": "%"},
      {"measurement": "IC50", "setting": "H1975; NCI-H1975, MTT, 72 h", "value": "23 ± 0.3", "unit": "µM"},
      {"measurement": "melting point", "value": "108 to 110", "unit": "°C"},
      {"measurement": "IC50", "setting": "HEK293", "value": "> 50", "unit": "µM"},
      {"measurement": "cytotoxicity at 72 h, 50 µM", "setting": "[1]", "value": "< 50", "unit": "%"}
    ]},
    {"smiles": "CCCCCn1cnc2c(-c3ccc(OC(F)(F)F)cc3)nc(NCC3CCCCC3)nc21", "note": "[Compound 4h, N-(cyclohexylmethyl)-9-pentyl-6-(4-(trifluoromethoxy)phenyl)-9H-purin-2-amine]", "values": [
      {"measurement": "IC50", "setting": "BxPC-3", "value": "> 50", "unit": "µM"},
      {"measurement": "IC50", "setting": "Daoy; MTT", "value": "19 ± 1.1", "unit": "µM"},
      {"measurement": "cytotoxicity at 50 µM", "setting": "Daoy", "value": "81 ± 1.1", "unit": "%"},
      {"measurement": "cytotoxicity at 50 µM", "setting": "HCT116; HCT-116, 72 h", "value": "< 50", "unit": "%"},
      {"measurement": "IC50", "setting": "HCT116; HCT-116, MTT, 72 h", "value": "> 50", "unit": "µM"},
      {"measurement": "cytotoxicity at 50 µM", "setting": "HT29; HT-29, 72 h", "value": "< 50", "unit": "%"},
      {"measurement": "IC50", "setting": "HT29; HT-29, MTT, 72 h", "value": "> 50", "unit": "µM"},
      {"measurement": "IC50", "setting": "AsPC-1", "value": "> 50", "unit": "µM"},
      {"measurement": "cytotoxicity at 50 µM", "setting": "H1975; NCI-H1975, 72 h", "value": "61 ± 1.2", "unit": "%"},
      {"measurement": "IC50", "setting": "H1975; NCI-H1975, MTT, 72 h", "value": "39 ± 1.2", "unit": "µM"},
      {"measurement": "melting point", "value": "78 to 79", "unit": "°C"},
      {"measurement": "IC50", "setting": "HEK293", "value": "> 50", "unit": "µM"},
      {"measurement": "cytotoxicity at 72 h, 50 µM", "setting": "[1]", "value": "< 50", "unit": "%"}
    ]},
    {"smiles": "CCCCCn1cnc2c(-c3ccc(OC(F)(F)F)cc3)nc(N3CCN(c4ccncc4)CC3)nc21", "note": "[Compound 4r, 9-Pentyl-2-(4-(pyridin-4-yl)piperazin-1-yl)-6-(4-(trifluoromethoxy)phenyl)-9H-purine]", "values": [
      {"measurement": "IC50", "setting": "BxPC-3", "value": "> 50", "unit": "µM"},
      {"measurement": "cytotoxicity at 50 µM", "setting": "Daoy; 50 µM, MTT", "value": "92 ± 0.4", "unit": "%"},
      {"measurement": "cytotoxicity at 50 µM", "setting": "HCT116; HCT-116, 50 µM, 72 h, MTT", "value": "81 ± 0.8", "unit": "%"},
      {"measurement": "IC50", "setting": "HCT116; HCT-116, MTT, 72 h", "value": "19 ± 0.8", "unit": "µM"},
      {"measurement": "cytotoxicity at 50 µM", "setting": "HT29; HT-29, 50 µM, 72 h, MTT", "value": "< 50", "unit": "%"},
      {"measurement": "IC50", "setting": "HT29; HT-29, MTT, 72 h", "value": "> 50", "unit": "µM"},
      {"measurement": "IC50", "setting": "AsPC-1", "value": "> 50", "unit": "µM"},
      {"measurement": "cytotoxicity at 50 µM", "setting": "H1975; NCI-H1975, 50 µM, 72 h, MTT", "value": "< 50", "unit": "%"},
      {"measurement": "IC50", "setting": "H1975; NCI-H1975, MTT, 72 h", "value": "7.7 ± 0.4", "unit": "µM"},
      {"measurement": "melting point", "value": "109 to 110", "unit": "°C"},
      {"measurement": "cytotoxicity in tumour cell lines", "setting": "tumour cell lines", "value": "more than 80%"},
      {"measurement": "IC50", "setting": "HEK293", "value": "> 50", "unit": "µM"},
      {"measurement": "cytotoxicity at 72 h, 50 µM", "setting": "[1]", "value": "< 50", "unit": "%"}
    ]},
    {"smiles": "Cc1cccc(C)c1NC(=O)c1ccc(Nc2nc(-c3ccc(OC(F)(F)F)cc3)c3ncn(C)c3n2)cc1", "note": "[III]", "values": [
      {"measurement": "IC50 in GLI-luciferase reporter assays", "setting": "GLI-luciferase reporter", "value": "nanomolar range"}
    ]},
    {"smiles": "Cc1ccc(CN2CCOCC2)cc1NC(=O)c1ccc(Nc2nc(-c3ccc(OC(F)(F)F)cc3)c3ncn(C)c3n2)cc1", "note": "[IV]", "values": [
      {"measurement": "IC50 in GLI-luciferase reporter assays", "setting": "GLI-luciferase reporter", "value": "nanomolar range"}
    ]}
  ]
}
